Experimental data as given in ChEMBL document CHEMBL1137073, “Development of irreversible diphenyl phosphonate inhibitors for urokinase plasminogen activator” (J Med Chem, 2004).

Columns and labels:
[1] = target: T1, Urokinase-type plasminogen activator (Homo sapiens, UniProt P00749); experiment: (§1) Inhibitory activity against Urokinase-type plasminogen activator
Coagulation factor X [2] = target: T2, Coagulation factor X (Homo sapiens, UniProt P00742); experiment: Inhibitory activity against Coagulation factor Xa
T2 sequence (P00742 41-179 limits assumed): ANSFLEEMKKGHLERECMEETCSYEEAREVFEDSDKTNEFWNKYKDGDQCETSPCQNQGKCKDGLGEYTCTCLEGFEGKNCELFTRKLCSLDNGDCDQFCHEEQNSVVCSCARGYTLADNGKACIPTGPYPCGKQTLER
T2 sequence (P00742 235-488 limits assumed): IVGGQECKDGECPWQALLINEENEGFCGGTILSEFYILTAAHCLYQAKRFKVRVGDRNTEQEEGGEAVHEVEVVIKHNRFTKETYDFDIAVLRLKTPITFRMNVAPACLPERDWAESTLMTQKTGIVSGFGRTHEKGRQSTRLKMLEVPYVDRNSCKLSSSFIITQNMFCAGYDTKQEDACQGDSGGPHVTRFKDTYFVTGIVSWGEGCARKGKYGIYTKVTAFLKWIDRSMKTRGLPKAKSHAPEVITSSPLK

[3] = target: T3, Tissue-type plasminogen activator (Homo sapiens, UniProt P00750); experiment: Inhibitory activity against Tissue type plasminogen activator
Target sequence in this assay (P00750 whole entry): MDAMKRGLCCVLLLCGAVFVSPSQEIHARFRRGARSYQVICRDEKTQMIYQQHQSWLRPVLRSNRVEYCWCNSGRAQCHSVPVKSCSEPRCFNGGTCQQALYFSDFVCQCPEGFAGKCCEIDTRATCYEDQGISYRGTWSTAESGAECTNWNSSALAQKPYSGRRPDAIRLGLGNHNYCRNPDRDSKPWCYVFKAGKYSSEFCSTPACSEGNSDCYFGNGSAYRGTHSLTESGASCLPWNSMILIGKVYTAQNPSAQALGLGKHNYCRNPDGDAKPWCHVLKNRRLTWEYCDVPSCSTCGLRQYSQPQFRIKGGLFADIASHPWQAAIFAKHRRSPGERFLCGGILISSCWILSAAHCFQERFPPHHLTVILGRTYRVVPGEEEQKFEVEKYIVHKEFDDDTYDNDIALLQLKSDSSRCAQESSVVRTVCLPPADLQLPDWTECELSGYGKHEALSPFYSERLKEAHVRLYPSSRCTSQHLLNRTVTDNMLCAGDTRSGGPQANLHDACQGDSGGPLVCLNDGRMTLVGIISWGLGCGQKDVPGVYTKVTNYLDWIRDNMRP

[4] = target: T1, Urokinase-type plasminogen activator; experiment: as §1; remark: listed apart in the source
Prothrombin [5] = target: T4, Prothrombin (Homo sapiens, UniProt P00734); experiment: Inhibitory activity against thrombin
Plasminogen [6] = target: T5, Plasminogen (Homo sapiens, UniProt P00747); experiment: Inhibitory activity against plasmin
T5 sequence (P00747 97-580 limits assumed): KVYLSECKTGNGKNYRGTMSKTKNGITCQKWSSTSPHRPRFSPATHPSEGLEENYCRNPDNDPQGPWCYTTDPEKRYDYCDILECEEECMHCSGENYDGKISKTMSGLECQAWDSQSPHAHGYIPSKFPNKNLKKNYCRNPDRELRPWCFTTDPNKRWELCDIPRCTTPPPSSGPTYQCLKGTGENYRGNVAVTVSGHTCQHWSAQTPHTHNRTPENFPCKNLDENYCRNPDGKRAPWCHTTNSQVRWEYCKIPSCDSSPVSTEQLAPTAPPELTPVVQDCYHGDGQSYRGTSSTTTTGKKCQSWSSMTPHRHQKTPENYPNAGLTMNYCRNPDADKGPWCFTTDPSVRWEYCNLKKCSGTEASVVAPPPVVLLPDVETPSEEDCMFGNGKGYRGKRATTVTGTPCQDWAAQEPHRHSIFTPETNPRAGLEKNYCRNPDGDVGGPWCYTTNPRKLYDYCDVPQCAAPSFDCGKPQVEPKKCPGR
T5 sequence (P00747 581-810 limits assumed): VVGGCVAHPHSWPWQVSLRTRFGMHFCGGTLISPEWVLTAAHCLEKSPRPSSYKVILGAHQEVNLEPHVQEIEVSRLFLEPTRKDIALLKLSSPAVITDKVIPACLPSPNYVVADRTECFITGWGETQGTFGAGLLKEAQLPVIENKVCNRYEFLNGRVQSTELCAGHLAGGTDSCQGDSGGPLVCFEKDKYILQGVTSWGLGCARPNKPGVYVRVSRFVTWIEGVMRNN

[7] = target: T3, Tissue-type plasminogen activator; experiment: Inhibitory activity against Tissue type plasminogen activator at a concentration of 2.5 uM
Target sequence in this assay (P00750 36-562 limits assumed): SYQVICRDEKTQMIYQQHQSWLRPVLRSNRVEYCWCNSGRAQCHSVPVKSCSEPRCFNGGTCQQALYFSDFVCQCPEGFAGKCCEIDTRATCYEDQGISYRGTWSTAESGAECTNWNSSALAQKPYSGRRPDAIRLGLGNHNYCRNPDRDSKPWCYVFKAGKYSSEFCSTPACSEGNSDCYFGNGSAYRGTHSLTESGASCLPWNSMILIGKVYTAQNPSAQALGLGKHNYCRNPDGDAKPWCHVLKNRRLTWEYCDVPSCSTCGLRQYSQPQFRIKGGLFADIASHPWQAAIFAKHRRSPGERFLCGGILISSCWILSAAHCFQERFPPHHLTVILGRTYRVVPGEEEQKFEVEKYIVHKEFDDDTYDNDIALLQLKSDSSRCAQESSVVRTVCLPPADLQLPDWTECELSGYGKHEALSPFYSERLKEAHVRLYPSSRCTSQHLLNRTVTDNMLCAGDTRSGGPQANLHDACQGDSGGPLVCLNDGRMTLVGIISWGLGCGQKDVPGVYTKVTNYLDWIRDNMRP

Prothrombin [8] = target: T4, Prothrombin; experiment: Inhibitory activity against thrombin at a concentration of 2.5 uM
[9] = target: T3, Tissue-type plasminogen activator; conditions: at 250 µM
Target sequence in this assay (P00750 36-562 limits assumed): as above
Description: (§2) Inhibitory activity against Tissue type plasminogen activator at a concentration of 250 uM

Coagulation factor X [10] = target: T2, Coagulation factor X; conditions: at 250 µM
Description: Inhibitory activity against Coagulation factor Xa at a concentration of 250 uM

Prothrombin [11] = target: T4, Prothrombin; conditions: at 250 µM
Description: Inhibitory activity against thrombin at a concentration of 250 uM

Plasminogen [12] = target: T5, Plasminogen; conditions: at 250 µM
Description: Inhibitory activity against plasmin at a concentration of 250 uM

[13] = target: T3, Tissue-type plasminogen activator; conditions: at 250 µM; remark: listed apart in the source
Target sequence in this assay (P00750 36-562 limits assumed): as above
Description: as §2

[14] = target: T3, Tissue-type plasminogen activator; experiment: Inhibitory activity against Tissue type plasminogen activator at a concentration of
Target sequence in this assay (P00750 36-562 limits assumed): as above

Compound `C[C@H](NC(=O)[C@@H](CO)NC(=O)OCc1ccccc1)C(=O)NC(Cc1ccc(NC(=N)N)cc1)P(=O)(Oc1ccccc1)Oc1ccccc1` (some centres undefined) has a K app [1] of 6.7 M⁻¹ s⁻¹.
`C[C@H](NC(=O)[C@@H](CO)NC(=O)OCc1ccccc1)C(=O)NC(Cc1ccc(N=C(N)N)cc1)P(=O)(Oc1ccccc1)Oc1ccccc1` (some centres undefined) showed an IC50 (Coagulation factor X [2]) of 79 µM, an IC50 [3] of 14 µM and an IC50 [4] of 57 nM. It also gave an IC50 (Prothrombin [5]) of 30 µM and an IC50 (Plasminogen [6]) of 22 µM.
`C[C@H](NC(=O)[C@@H](CO)NC(=O)OCc1ccccc1)C(=O)NC(CCCCN=C(N)N)P(=O)(Oc1ccccc1)Oc1ccccc1` (some centres undefined) showed an inhibition [7] of 19%, an IC50 [4] of 250 nM and an inhibition (Prothrombin [8]) of 12%. It also gave a K app [1] of 3.8 M⁻¹ s⁻¹.
In the case of `C[C@H](NC(=O)[C@@H](CO)NC(=O)OCc1ccccc1)C(=O)NC(CCN=C(N)N)P(=O)(Oc1ccccc1)Oc1ccccc1` (some centres undefined), the inhibition [9] is reported as 46%, the inhibition (Coagulation factor X [10]) is reported as 6% and the inhibition (Prothrombin [8]) is reported as 10%. It also gave a K app [1] of 1.4 M⁻¹ s⁻¹, an inhibition (Prothrombin [11]) of 96% and an inhibition (Plasminogen [12]) of 15%.
For `C[C@H](NC(=O)[C@@H](CO)NC(=O)OCc1ccccc1)C(=O)NC(CCNC(=N)N)P(=O)(Oc1ccccc1)Oc1ccccc1` (some centres undefined), the IC50 [4] was 4100 nM.
In the case of `C[C@H](NC(=O)[C@@H](CO)NC(=O)OCc1ccccc1)C(=O)NC(c1ccc(N=C(N)N)cc1)P(=O)(Oc1ccccc1)Oc1ccccc1` (some centres undefined), the IC50 [4] is reported as 1600 nM.
Compound `C[C@H](NC(=O)[C@@H](CO)NC(=O)OCc1ccccc1)C(=O)NC([C@H]1CC[C@H](CN=C(N)N)CC1)P(=O)(Oc1ccccc1)Oc1ccccc1` (some centres undefined) has an inhibition [13] of 41%, an inhibition (Coagulation factor X [10]) of 77% and an IC50 [4] of 1100 nM. For the same compound, the IC50 (Plasminogen [6]) was 32.2 µM, the K app [1] was 1.4 M⁻¹ s⁻¹ and the inhibition (Prothrombin [11]) was 40%.
`N=C(N)NC(=O)c1nc(Cl)c(N)nc1N` [AMILORIDE] was tested, and the IC50 [3] was > 250 µM, the inhibition (Coagulation factor X [10]) was 17% and the IC50 (Prothrombin [5]) was > 250 µM. For the same compound, the inhibition (Plasminogen [12]) was 23%.
`C[C@H](NC(=O)[C@@H](CO)NC(=O)OCc1ccccc1)C(=O)NC(CCCN=C(N)N)P(=O)(Oc1ccccc1)Oc1ccccc1` (some centres undefined) was tested, and the inhibition [7] was 50%.
In the case of `C[C@H](NC(=O)[C@@H](CO)NC(=O)OCc1ccccc1)C(=O)NC(c1ccc(CN=C(N)N)cc1)P(=O)(Oc1ccccc1)Oc1ccccc1` (some centres undefined), the inhibition [13] is reported as 43%, the inhibition (Coagulation factor X [10]) is reported as 44% and the IC50 [4] is reported as 8400 nM. The K app [1] was 3.3 M⁻¹ s⁻¹, the inhibition (Prothrombin [11]) was 20% and the inhibition (Plasminogen [12]) was 45%.
In the case of `C[C@H](NC(=O)[C@@H](CO)NC(=O)OCc1ccccc1)C(=O)NC(CCCNC(=N)N)P(=O)(Oc1ccccc1)Oc1ccccc1` (some centres undefined), the IC50 (Coagulation factor X [2]) is reported as 65 µM, the IC50 [4] is reported as 61 nM and the IC50 (Prothrombin [5]) is reported as 0.5 µM. It also gave an IC50 (Plasminogen [6]) of 10.8 µM.
In the case of `C[C@H](NC(=O)[C@@H](CO)NC(=O)OCc1ccccc1)C(=O)NC(c1ccc(NC(=N)N)cc1)P(=O)(Oc1ccccc1)Oc1ccccc1` (some centres undefined), the inhibition [14] is reported as 53%, the inhibition (Coagulation factor X [10]) is reported as 56% and the inhibition (Prothrombin [8]) is reported as 44%. The K app [1] was 2 M⁻¹ s⁻¹ and the inhibition (Plasminogen [12]) was 46%.
